From patent US8460900B2, “Methods to degrade sludge from pulp and paper manufacturing” (Buckman Laboratories International, Inc., priority 2010, dated 2013)

System: CELLIC® CTec enzyme
Assay: Cellulase activity of enzyme-surfactant solutions, carboxymethyl cellulose as substrate
Format: biochemical
Settings: Table 3: 5 wt % surfactant + 10 wt % CELLIC CTec; for % Activity Increase: versus enzyme without surfactant; for Cellulase Activity (u/g): CMC substrate
Method: The experiments were set up for evaluating the effects of surfactants on enzymatic activity of CELLIC® CTec enzyme. The enzyme, surfactant, and water were mixed to form a solution containing 5 wt % surfactant and 10 wt % enzyme. For example, 1.0 g of CELLIC® CTec, 0.5 g of PLURONIC F108, and 8.5 g of deionized water were mixed to produce a solution containing 10 wt % enzyme and 5 wt % surfactant. The resulted enzyme-surfactant solutions were tested for cellulase activity. Carboxymethyl cellulose was used as the assay substrate. A control solution containing 10 wt % enzyme without surfactant was included for comparison.
Five PLURONIC surfactants with different HLB values are evaluated for their effects on the enzymatic activity of CELLIC® CTec in water solution. Each surfactant was mixed with the enzyme in water. The resulting solution was then assayed for cellulase activity using carboxymethyl cellulose (CMC) as the substrate. […] F108 enhanced the enzymatic activity by 22.3%.

% Activity Increase [%]	Cellulase Activity (u/g)	Substance
6.9	351.6	Cocobis(2-hydroxyethyl)methyl ammonium chloride
−2.3	321.5	Sorbitan mono-oleate [Sorbitan mono-oleate, non-ionic]
7.3	353.1	Sorbitan mono-oleate ester [Sorbitan mono-oleate ester, non-ionic]
